Read-outs that look alike come from different tables or passages of the source.
Experiments:
[1] = cited from earlier work
MMP-9 = MMP-9 (Mus musculus, UniProt P41245); assay: Peptide cleavage by recombinant MMP-9; format: biochemical; conditions: prinomastat added to prodrug with MMP-9, similar conditions (Figure S1)
Chain of MMP-9 (P41245 108-730): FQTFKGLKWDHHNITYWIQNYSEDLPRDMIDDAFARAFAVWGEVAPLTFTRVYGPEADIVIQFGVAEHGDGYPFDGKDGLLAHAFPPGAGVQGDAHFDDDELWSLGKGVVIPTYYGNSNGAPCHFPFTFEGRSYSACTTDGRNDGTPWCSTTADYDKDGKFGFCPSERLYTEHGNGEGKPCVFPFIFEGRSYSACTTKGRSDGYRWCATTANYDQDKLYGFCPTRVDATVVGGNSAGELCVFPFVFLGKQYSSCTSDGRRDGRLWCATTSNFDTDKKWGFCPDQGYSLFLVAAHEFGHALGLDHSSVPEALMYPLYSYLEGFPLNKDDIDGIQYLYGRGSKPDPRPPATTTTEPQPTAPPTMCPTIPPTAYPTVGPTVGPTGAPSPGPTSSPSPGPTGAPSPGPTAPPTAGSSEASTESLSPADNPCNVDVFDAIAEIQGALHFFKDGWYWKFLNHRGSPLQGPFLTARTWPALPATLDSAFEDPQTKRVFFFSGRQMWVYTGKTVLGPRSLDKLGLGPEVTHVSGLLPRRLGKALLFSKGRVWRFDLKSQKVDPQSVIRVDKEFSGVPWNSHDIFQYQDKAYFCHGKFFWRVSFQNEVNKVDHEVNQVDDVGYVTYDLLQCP

In the case of CC[C@H](C)[C@H](NC(=O)CN)C(=O)NCC(=O)N[C@@H](C)C(=O)N[C@H](C(=O)N[C@@H](CC(C)C)C(=O)N[C@@H](CCCCN)C(=O)N[C@H](C(=O)N[C@@H](CC(C)C)C(=O)N[C@H](C(=O)N[C@H](C(=O)NCC(=O)N[C@@H](CC(C)C)C(=O)N1CCC[C@H]1C(=O)N[C@@H](C)C(=O)N[C@@H](CC(C)C)C(=O)N[C@H](C(=O)N[C@@H](CO)C(=O)N[C@@H](Cc1c[nH]c2ccccc12)C(=O)N[C@H](C(=O)N[C@@H](CCCCN)C(=O)N[C@@H](CCCNC(=N)N)C(=O)N[C@@H](CCCCN)C(=O)N[C@@H](CCCNC(=N)N)C(=O)N[C@@H](CCC(N)=O)C(=O)N[C@@H](CCC(N)=O)C(N)=O)[C@@H](C)CC)[C@@H](C)CC)[C@@H](C)O)[C@@H](C)O)C(C)C)C(C)C [melittin, Melittin], the plasma half-life ([1]; free melittin) is listed as 24 min and the plasma half-life ([1]; melittin incorporated onto perfluorocarbon nanoparticles) is listed as “over 300 minutes”.
In the case of CC1(C)SCCN(S(=O)(=O)c2ccc(Oc3ccncc3)cc2)[C@H]1C(=O)NO [prinomastat], the “effect on prodrug cleavage by MMP-9” value (MMP-9) is reported as “prevented cleavage of the prodrug”.
